# According to US9937152B2, “Derivative of styrene-maleic acid copolymer” (priority 2013, dated 2018):
# Assays:
# [1] = system: colon cancer (C26); assay type: in vivo, Balb mice
# Protocol: SMA-THP and pirarubicin (THP) were administered intravenously to mice at the respective dose shown in Table 2 at Day 10 from the inoculation of cancer in mice, and the antitumor effect was evaluated at Day 50. Subsequently, 5×10^5 colon cancer (C26) cells were inoculated in the back in Balb mice and the model animals with tumor size of 5 to 6 mm at about Day 7 to 9 were treated.
# [2] = in vivo; conditions: mouse
# [3] = dose 3 mg/kg (MTD amount) i.v. at Day 10, evaluated at Day 50
structure (smiles),measurement,setting,value
"COc1cccc2c1C(=O)c1c(O)c3c(c(O)c1C2=O)C[C@@](O)(C(=O)CO)C[C@@H]3O[C@H]1C[C@H](N)[C@H](O[C@@H]2CCCCO2)[C@H](C)O1 [THP, pirarubicin]","Number of Metastatic Cancerous Nodes/Mouse: (1~5) (+), mice/group",[1]; [3],2/5
same,"Number of Metastatic Cancerous Nodes/Mouse: (>6) (++), mice/group",[1]; [3],3/5
same,"Number of Metastatic Cancerous Nodes/Mouse: No Metastasis (−), mice/group",[1]; [3],0/5
same,effect on the metastatic cancers,[1]; maximum tolerated dose of 3 mg/kg,almost ineffective
same,MTD,"[2]; Balb, iv",3 mg/kg
same,LD50,[2],14.4 mg/kg
